Source: patent publication US20260076952A1, “Agent for Treatment of Neutropenia” (Eberhard Karls Universität Tübingen Medizinische Fakultät, priority 2023, published 2026)
“Also recorded” adds a separate entry of the source.

How the values were obtained:
ELANE-CN iPSCs = assay: Colony-forming unit (CFU) assay of CD34+ cells from EB-based CN-iPSC culture; format: cell-based, human
Protocol: Colony-forming unit (CFU) assay of CD34^+ cells harvested from EB-based CN-iPSC culture on day 14 of differentiation treated with eleven short listed small molecules.
EB-Based Hematopoietic Differentiation of iPSCs iPSCs were cultured on SNL feeder cells for 24 hours and then dissociated using PBS/EDTA (0.02%) for 5 min. EB generation was performed by centrifugation of 2×10^4 cells per EB in 96-well plates using APEL serum-free differentiation medium (Stemcell Technologies) supplemented with bFGF (20 ng/μl) and ROCK Inhibitor (R&D). On day one, BMP4 (40 ng/μl) was added to the culture medium to induce mesodermal differentiation. On day four, EBs were plated on Matrigel-coated 6-well plates (10 EBs/well) in APEL medium supplemented with VEGF (40 ng/μl), SCF (50 ng/μl) and IL-3 (50 ng/μl). For neutrophilic differentiation, the medium was changed 3 days later to fresh APEL medium supplemented with IL3 (50 ng/μl) and G-CSF (50 ng/μl). All cytokines were purchased from R&D Systems if nothing else is indicated. First hematopoietic suspension cells appeared between day 10 and 14. Suspension cells were harvested every 3-4 days and analyzed starting from day 14 to day 32.
The inventors then selected eleven small molecules that could potentially mimic the differentially expressed genes (DEGs) signature between CN and CN-corrected HSPCs and screened the effect of these small molecules on granulopoiesis using their isogenic CN iPSC model.

[1] = tested on: primary bone marrow CD34+ HSPCs of healthy donors; assay: CFU assay of primary bone marrow CD34+ HSPCs of healthy donors; format: cell-based, human; details: 40 nM, compared to DMSO control
From the text: FIG. 3A. […] Data represent means±SD from two independent experiments. **P<0.01.

[2] = tested on: primary bone marrow CD34+ HSPCs of healthy donors; assay: Granulocytic liquid culture differentiation (LCD) of healthy donor CD34+ HSPCs; format: cell-based, human; details: for neutrophil count, morphological examination of cytospin preparations: day 14
Protocol: (§1) CD34+ cells were seeded in a 24-well plate at a density of 2×10^5 cells/ml. […] Medium was exchanged every second day. On day 7, cells were plated in RPMI 1640 GlutaMAX supplemented with 10% FBS, 1% penicillin/streptomycin and 10 ng/ml G-CSF. On day 14, cells were analyzed by flow cytometry using following mouse anti-human antibodies: CD34 (BD, #348811), CD33 (BioLegend, #303416), CD45 (BioLegend, #304036), CD11b (BD, #557754), CD15 (BD, #555402), CD66b (BioLegend, #305114), CD16 (BD, #561248).

[3] = tested on: primary bone marrow CD34+ HSPCs of ELANE-CN, HAX1-CN, JAGN1-CN and SRP54-CN patients; assay: CFU assay of primary bone marrow CD34+ HSPCs of CN patients; format: cell-based, human; details: two ELANE-CN, one HAX1-CN, one SRP54-CN patient, 40 nM
From the text: FIG. 4A. […] Data represent means±SD from two independent experiments. *P<0.05, **P<0.01.

[4] = tested on: primary bone marrow CD34+ HSPCs of ELANE-CN, HAX1-CN, JAGN1-CN and SRP54-CN patients; assay: Granulocytic liquid culture differentiation (LCD) of CN patient CD34+ HSPCs; format: cell-based, human; details: all CN patients
Protocol: as §1

HSPCs (CD41: gfp+ cells) = assay: Zebrafish in vivo model, number of HSPCs in tg(CD41:gfp) embryos; details: up to 10 µM, two days, compared to DMSO-treated controls
Protocol: (§2) Zebrafish transgenic lines and wild type were maintained according to standard protocols and handled in accordance with European Union animal protection directive 2010/63/EU. The maintenance was approved by the local government (Tierschutzgesetz § 11, Abs. 1, Nr. 1, husbandry permit 35/9185.46/Uni TÜ). All the experiments were performed in zebrafish embryos under 5 days post fertilization. In this study the inventors used two transgenic (tg) reporter lines, tg(mpo: gfp), where neutrophils express gfp and tg(CD41:gfp),where HSPCs express gfp, both described in the art.
(§3) To generate the jagn1b and hax1 mutants two different approaches were used, CRISPR/Cas9-mediated knock-out and morpholino-based knock down, respectively. On the one hand, to interfere with the function of jagn1b, jagn1b-targeting sgRNA and Cas9 protein RNPs (Alt-R S.p. Cas9 nuclease, v.3, IDT) were injected into the blastomere of 1-cell stage tg (mpo: gfp) embryos, as described in the art. On the other hand, to interfere with hax1 function 1 mM hax1-specific morpholino (GeneTool) was injected into 1-cell stage tg (mpo: gfp) embryos as previously described in the art. […] After two days of treatment, the number of mpo:gfp^+ or CD41:gfp^+ cells where quantified using a Nikon stereo-fluorescent SMZ18 microscope.

[5] = tested on: jagn1b knock-out zebrafish mutant embryos; assay: Zebrafish jagn1b knock-out neutropenia model, number of neutrophils; format: in vivo; details: two days treatment
Protocol: as §2, §3

[6] = tested on: hax1-knock-down zebrafish mutant embryos (hax1 MO); assay: Zebrafish hax1 knock-down neutropenia model, number of neutrophils; format: in vivo; details: two days treatment
Protocol: as §2, §3

[7] = tested on: human primary neutrophils of healthy donor; assay: RealTime-Glo MT Cell Viability Assay on human primary neutrophils; format: cell-based; details: 40 nM, compared with 0.1% DMSO
From the text: The assay measures the reducing potential of viable cells in an ATP-independent manner and the nonlytic nature, high sensitivity and rapid response of the assay make it possible to track the cell viability over time in the same plate. Ficoll-Paque density gradient media (density: 1.077 g/mL) used for isolation of peripheral blood polymononuclear cell (PBPMNs) 1 of healthy donors.

[8] = tested on: CD34+ HSPCs of healthy donors; assay: Annexin V apoptosis assay on CD34+ HSPCs; format: cell-based, human; details: 40 nM, 48 hours
[9] = tested on: CD34+ HSPCs of healthy donors; assay: RealTime-Glo MT Cell Viability Assay on CD34+ HSPCs; format: cell-based, human; details: 40 nM, 48 hours, versus DMSO-treated group
[10] = tested on: in vitro generated neutrophils; assay: Annexin V apoptosis assay on in vitro generated neutrophils; format: cell-based, human; details: day 13 of LCD, four healthy donors
[11] = tested on: in vitro generated neutrophils; assay: RealTime-Glo MT cell viability assay on in vitro generated neutrophils; format: cell-based, human; details: day 13 of LCD, four healthy donors
[12] = tested on: in vitro generated neutrophils; assay: Reactive oxygen species (ROS) assay of in vitro generated neutrophils; format: cell-based, human; details: differentiated in the presence of 40 nM flavopiridol
[13] = tested on: in vitro generated neutrophils; assay: Chemotaxis assay of in vitro generated neutrophils; format: cell-based, human; details: differentiated in the presence of 40 nM flavopiridol
[14] = tested on: in vitro generated neutrophils; assay: Phagocytosis assay of in vitro generated neutrophils; format: cell-based, human; details: differentiated in the presence of 40 nM flavopiridol
[15] = prior-art clinical trials, used to inhibit CDKs and induce apoptosis in leukemia cells (Gerson et al. 2018); cited from earlier work
[16] = three independent ELANE-CN derived iPSCs, 40 nM flavopiridol

CN1CC[C@H](c2c(O)cc(O)c3c(=O)cc(-c4ccccc4Cl)oc23)[C@H](O)C1 [flavopiridol]
granulopoiesis in CN iPSCs (screening) (ELANE-CN iPSCs; screen of eleven small molecules in isogenic CN iPSC model): markedly restored the granulopoiesis
CFU-macrophages (CFU-Ms) (ELANE-CN iPSCs; [16]): significant decrease
colony-forming unit-granulocytes (CFU-G) (ELANE-CN iPSCs; [16]): significant increase
levels of CFU-G ([1]; healthy donor one (HD1)): significantly elevated levels of CFU-G
levels of CFU-G ([1]; healthy donor two (HD2)): no significant change
granulopoiesis: numbers of granulocytes (CD45+CD15+CD11b+, CD45+CD15+CD66b+) and mature neutrophils (CD45+CD15+CD16+) ([2]; both healthy donors, 40 nM, 14 days, flow cytometry): significantly enhanced granulopoiesis
neutrophil count, morphological examination of cytospin preparations ([2]; healthy donor one (HD1)): no change
neutrophil count, morphological examination of cytospin preparations ([2]; healthy donor two (HD 2)): a significant increase in neutrophil count
levels of CFU-G [3]: significantly elevated levels of CFU-G in all CN groups
granulopoiesis: numbers of granulocytes and mature neutrophils by flow cytometry ([4]; 40 nM, 14 days): significant restoration of granulopoiesis
granulopoiesis, morphological examination of cytospin preparations ([4]; day 14): significant restoration or restoration trend of granulopoiesis
total number of HSPCs (CD41: gfp+ cells) (HSPCs (CD41: gfp+ cells)): did not affect
number of neutrophils (mpo: gfp+ cells) [5]: significantly restored the number of neutrophils (mpo: gfp^+ cells) to a similar level to wildtype controls; also recorded: restored the number of neutrophils (mpo: gfp^+ cells) to a similar level than the wildtype controls
number of neutrophils (mpo: gfp+ cells) [6]: significantly restored the number of neutrophils (mpo: gfp^+ cells) to a similar level to wildtype controls; also recorded: increased to a similar level than the wildtype controls
viability of neutrophils ([7]; 3 hours): No significant difference
viability of neutrophils ([7]; 24 hours): No significant difference
viability of neutrophils ([7]; 48 hours): No significant difference
apoptosis in CD34+ HSPCs [8]: did not induce apoptosis
viability of CD34+ HSPCs [9]: comparable to that of the DMSO-treated group
early apoptotic cells [10]: about 3%
late apoptotic cells [10]: less than 2%
live cells [10]: More than 95%
levels of viability upon differentiation [11]: improved levels of viability
neutrophil function, reactive oxygen species (ROS) [12]: did not affect neutrophil function
neutrophil function, chemotaxis [13]: did not affect neutrophil function
neutrophil function, phagocytosis [14]: did not affect neutrophil function
steady-state blood plasma levels [15]: about 350 nM
